The values that follow come from PMC9475448, “What a difference a methylene makes: replacing Glu with Asp or Aad in the Lys-urea-Glu pharmacophore of PSMA-targeting radioligands to reduce kidney and salivary gland uptake” (Theranostics, 2022).

For data set [1], the system named is mouse kidneys and salivary glands. The data set is described as follows: Biodistribution of previously reported [68Ga]Ga-HTK03041 in mice. The class given is in vivo. Particulars: 1h post-injection, unreported data of the earlier study.
Data set [2] shares this test system. Also on record: method as in PMID 32859704. As to conditions: 1h post-injection; cited from earlier work.
For data set [3], the system named is parotid gland. As to conditions: in vivo; cited from earlier work.
Data set [4] addresses T1, PSMA (Homo sapiens, UniProt Q04609).
T1 construct: LNCaP cells (400,000/well) were plated onto a 24-well poly-D-lysine coated plate for 48 h; endogenous in cells; host or cells: LNCaP prostate cancer cells
Set-up: method as in PMID 30251544. As to conditions: same assay conditions, reported previously; cited from earlier work.

The test system of data set [5] is mouse model. Particulars: up to 657 mg/kg; cited from earlier work.
Data set [6] has as its target T1, PSMA. Set-up: method as in PMID 30097503. As to conditions: read-out: Ki (PSMA inhibitor); cited from earlier work.

Where two headings read alike, the source gives them in different places.

T1 sequence (Q04609 whole entry): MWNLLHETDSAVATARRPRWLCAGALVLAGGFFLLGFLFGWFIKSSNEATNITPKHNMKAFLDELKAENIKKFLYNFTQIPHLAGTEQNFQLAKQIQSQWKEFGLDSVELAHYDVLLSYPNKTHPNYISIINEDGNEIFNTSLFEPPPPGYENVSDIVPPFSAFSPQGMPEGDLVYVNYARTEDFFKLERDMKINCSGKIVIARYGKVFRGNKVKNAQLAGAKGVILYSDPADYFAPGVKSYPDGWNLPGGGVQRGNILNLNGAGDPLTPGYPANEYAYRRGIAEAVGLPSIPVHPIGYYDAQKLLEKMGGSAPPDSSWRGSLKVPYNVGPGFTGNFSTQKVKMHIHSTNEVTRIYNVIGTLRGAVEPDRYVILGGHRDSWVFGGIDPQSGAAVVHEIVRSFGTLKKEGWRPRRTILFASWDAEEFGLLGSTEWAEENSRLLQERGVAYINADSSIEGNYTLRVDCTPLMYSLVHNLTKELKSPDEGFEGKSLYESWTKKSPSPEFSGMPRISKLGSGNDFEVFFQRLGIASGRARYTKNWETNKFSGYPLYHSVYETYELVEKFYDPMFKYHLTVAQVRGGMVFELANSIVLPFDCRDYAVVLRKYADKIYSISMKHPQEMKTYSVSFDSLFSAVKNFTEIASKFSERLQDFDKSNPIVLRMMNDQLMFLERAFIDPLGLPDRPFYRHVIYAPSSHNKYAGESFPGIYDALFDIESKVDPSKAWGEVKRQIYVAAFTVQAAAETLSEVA

`O=C([O-])CN1CCN(CC(=O)[O-])CCN(CC(=O)NCC2CCC(C(=O)NC(Cc3c4ccccc4cc4ccccc34)C(=O)NCCCCC(NC(=O)NC(CCC(=O)O)C(=O)O)C(=O)O)CC2)CCN(CC(=O)[O-])CC1.[68Ga+3]` (stereo not drawn) [[^68Ga]Ga-HTK03041] showed a Salivary gland uptake in data set [1] of 4.99±0.88 %IA/g. For the same compound, the Kidney uptake in data set [2] is reported as 170±26.4 %IA/g.
Consider botulinum toxin A, for which the “Reduction in SUVmean of the treated parotid gland in [68Ga]Ga-PSMA-11 scan vs baseline” value in data set [3] is “up to 64%”.
A word on the Ki: it is a dissociation constant, usually derived from enzyme kinetics or from competition with a known ligand. On to `O=C([O-])CN1CCN(CC(=O)[O-])CCN(CC(=O)NCC2CCC(C(=O)N[C@@H](Cc3ccc4ccccc4c3)C(=O)NCCCC[C@H](NC(=O)N[C@@H](CCC(=O)O)C(=O)O)C(=O)O)CC2)CCN(CC(=O)[O-])CC1.[Lu+3]` (stereo partly drawn) [Lu-PSMA-617], for which the inhibition constant (Ki) in data set [4] was 0.24 ± 0.06 nM.
As for `N[C@@H](CCC(=O)O)C(=O)[O-].[Na+]` [monosodium glutamate], the “Effect of pretreatment on [68Ga]Ga-PSMA-11 uptake” value in data set [5] was “reduced uptake of [^68Ga]Ga-PSMA-11 in salivary glands and kidneys but had no effect on tumor uptake”. In addition, the inhibitory constant (Ki) in data set [6] was 900 nM.
